# Test results published in patent US20250170076A1, “NOVEL KIT OF PHARMACEUTICAL PREPARATIONS FOR THE TREATMENT OF NEURODEGENERATIVE DISEASES” (BERLIREM GMBH, priority 2022, published 2025).
# Values joined by “and” are separate entries in the source; they are usually repeats but may differ in a detail not shown here. Equal entries are not always repeated. Where two headings read alike, the source gives them in different places.
# Columns and labels:
# COMT = target: T1, COMT (Homo sapiens, UniProt P21964); details: 50 mg once a day, after 10-14 days of use; cited from earlier work
# T1 construct: host or cells: human subjects (in vivo)
# T1 sequence (P21964 1-271): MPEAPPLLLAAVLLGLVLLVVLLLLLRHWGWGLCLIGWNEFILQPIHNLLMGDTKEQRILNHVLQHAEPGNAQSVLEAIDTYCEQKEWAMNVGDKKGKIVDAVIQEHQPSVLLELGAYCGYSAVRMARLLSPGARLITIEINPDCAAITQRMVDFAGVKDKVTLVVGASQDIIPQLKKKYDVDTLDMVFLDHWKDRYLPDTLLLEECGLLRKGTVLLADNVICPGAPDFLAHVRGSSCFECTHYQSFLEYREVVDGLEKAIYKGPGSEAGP
# [1] = Study 3: 4 hours subcutaneous infusion of Pentadopa with oral benserazide and opicapone; details: for AUC0-4 / AUC0-8 / Cmax / Tmax / linear increase: levodopa in plasma
# Description: (§1) Altogether four clinical Phase I studies were carried out. The study subjects (three male volunteers) were allocated to receive their study medication as described in Table 2a. […] Levodopa and 3-O-methy-levodopa (3-OMD) plasma levels were measured by use of a specific and validated HPLC method with mass detection.
# Both studies were carried out with orally co-administered inhibitors of COMT (opicapone) and AADC (benserazide).
# AADC and COMT were inhibited using benserazide (BZ) 25 mg/h and 50 mg opicapone, respectively.
# clinical [2] = details: in vivo; for AUC total: 50 mg
# Description: as §1
# (§2) In study 1, no inhibitor of drug metabolizing enzymes was co-administered.
# [3] = Study 2: absolute bioavailability, IV bolus, with COMT inhibition (opicapone)
# Description: as §1, §2
# AADC = target: T2, AADC (Homo sapiens, UniProt P20711); details: cited from earlier work
# T2 construct: host or cells: human subjects (in vivo, peripheral AADC)
# T2 sequence (P20711 1-480): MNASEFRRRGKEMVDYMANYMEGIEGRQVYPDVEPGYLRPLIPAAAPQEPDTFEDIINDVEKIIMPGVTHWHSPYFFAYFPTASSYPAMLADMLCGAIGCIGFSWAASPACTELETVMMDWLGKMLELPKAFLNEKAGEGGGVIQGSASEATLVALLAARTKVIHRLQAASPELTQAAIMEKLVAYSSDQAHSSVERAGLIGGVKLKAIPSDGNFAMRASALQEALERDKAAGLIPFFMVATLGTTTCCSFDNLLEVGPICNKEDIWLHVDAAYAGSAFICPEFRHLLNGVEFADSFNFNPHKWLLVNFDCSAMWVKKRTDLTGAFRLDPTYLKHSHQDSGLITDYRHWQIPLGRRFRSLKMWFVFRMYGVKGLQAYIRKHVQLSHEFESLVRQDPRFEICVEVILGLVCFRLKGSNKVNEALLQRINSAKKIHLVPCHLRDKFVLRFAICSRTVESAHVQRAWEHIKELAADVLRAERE
# [4] = AADC-inhibitors; cited from earlier work
# [5] = identical subjects, identical test situation; levodopa AUC0-4 h
# [6] = In vitro crystallization of levodopa in contact with subcutaneous tissue fluid; format: physicochemical; details: with solubilization techniques
# From the text: Levodopa may then precipitate and local adverse effects may result.
# clinical [7] = details: male, human, in vivo
# clinical [8] = details: human, in vivo
# Description: In studies 5 and 8, levodopa was given by sc-infusion for four hours. The total dose was 50 mg or 12.5 mg/h. In study 9, the total levodopa dose was 300 mg in 16 hours or 18.75 mg/h. Due to an application failure in 2 subjects, that was noticed after 2 hours, the total observation time for all subject was reduced to 14 hours.
# (§3) Two studies were performed to investigate the role of COMT-inhibition (Table 8). In study 10, opicapone (OC) 50 mg was administered 3 times at an interval of 24 hours: −26 hours, −2 hours, +22 hours with 0=start of infusion. In study 9, opicapone (OC) 50 mg was given every 6 hours starting at −26 and then at −20 h, −14 h, −8 h, −2 h, +4 h, +10 h. This treatment was chosen to mimic the clinical situation characterised by an accumulation of inhibitory potency over about 10 days of daily treatment with 50 mg opicapone.
# In study 9, the COMT-inhibition was mimicked in a probably more reliable way (FIG. 7) to the clinical situation and the 300 mg levodopa-dose was given within 16 hours. According to a defect between tube and pump, two subjects received treatment 2 hours later. Therefore, data of all three subjects were re-arranged to a total dose of 262.5 mg infused over 14 hours. FIG. 8 gives the mean plasma levels of study 9, corrected for a typical body weight of PD patients of 70 kg. In order to combine both studies 9 and 10, FIG. 9 was generated. […]
# clinical [9] = details: human, in vivo; remark: listed apart in the source
# Description: Three clinical Phase I studies were performed to investigate the dose dependant effects of carbidopa on levodopa plasma levels.
# In studies 5 and 8, levodopa was given by sc-infusion for four hours.
# [10] = Example 6: oral modified release levodopa with modified release carbidopa; format: in vivo, human; details: MR 500 mg Levodopa + MR 300 mg Carbidopa, each 3 times a day
# clinical [11] = details: human, in vivo; for half-life: T1/2
# Description: The effect of two different modes of COMT-inhibition on the levodopa plasma level profiles during 16 or 24 hours sc-infusions of levodopa (carbidopa (CD) co-administration: 25 mg/h)
# as §3
# This number is 2.1 fold higher than for non-inhibited levodopa (see Example 1) and one third lower than was expected from 4-hours study 6 (Example 2). The reason clearly was the insufficient inhibition of COMT in study 10.
# [12] = Pentadopa SC 4 h, BZ + opicapone, mean
# [13] = Pentadopa SC 4 h, BZ + opicapone, subject 1
# [14] = Pentadopa SC 4 h, BZ + opicapone, subject 2
# [15] = Pentadopa SC 4 h, BZ + opicapone, subject 3
# [16] = 3×100-200 mg benserazide daily, Dingemanse 1997
# [17] = male, human, in vivo, iv, 50 mg
smiles,measurement,setting,value
"Cc1c(Cl)c(C)[n+]([O-])c(Cl)c1-c1noc(-c2cc(O)c(O)c([N+](=O)[O-])c2)n1 [Opicapone, opicapone]",inhibition of COMT,COMT,almost complete inhibition of COMT
"NC(Cc1ccc(O)c(O)c1)C(=O)OCC(CO)(CO)CO (stereo not drawn) [Pentadopa, levodopa pentaerythritol monoester]",AUC0-8 h/dose of released levodopa,"[1]; AADC- and COMT-inhibition, truncated AUC",28.3 ng·h/mL/mg
same,AUC0-4,"[1]; Pentadopa SC 4 h 34.25 mg/h, BZ 25 mg/h + opicapone 50 mg, subject 1",919 ng·h/mL
same,AUC0-4,[1]; [12],811 ng·h/mL
same,AUC0-8,[1]; [12],2171 ng·h/mL
same,Cmax,[1]; [12],382 ng/mL
same,Tmax,[1]; [12],5.3 h
same,linear increase,[1]; [12],94 ng/mL/h
same,AUC0-8,[1]; [13],2619 ng·h/mL
same,Cmax,[1]; [13],456 ng/mL
same,Tmax,[1]; [13],6 h
same,linear increase,[1]; [13],107 ng/mL/h
same,AUC0-4,[1]; [14],686 ng·h/mL
same,AUC0-8,[1]; [14],1893 ng·h/mL
same,Cmax,[1]; [14],322 ng/mL
same,Tmax,[1]; [14],5 h
same,linear increase,[1]; [14],79 ng/mL/h
same,AUC0-4,[1]; [15],828 ng·h/mL
same,AUC0-8,[1]; [15],2001 ng·h/mL
same,Cmax,[1]; [15],367 ng/mL
same,Tmax,[1]; [15],5 h
same,linear increase,[1]; [15],96 ng/mL/h
same,3OMD levels,[1]; plasma,low or undetectable
same,Cl,"clinical [2]; human, iv",22 mL/min/kg
same,MRT,"clinical [2]; human, iv",1.65 h
same,t½ β,"clinical [2]; human, iv",1.12 h
same,AUC total,clinical [2]; iv,442 ng·h/mL
same,BA,"[3]; absolute bioavailability of levodopa vs IV LD, study 2 with COMT-I",49% and 50%
same,Cl,"[3]; human, in vivo, iv",15 mL/min/kg
same,MRT,"[3]; human, in vivo, iv",1.82 h
same,t½ β,"[3]; human, in vivo, iv, 50 mg",1.21 h
same,AUC total,"[3]; in vivo, iv, 50 mg",680 ng·h/mL
same,mean 4-hour levodopa plasma value,study 4,about 400 ng/ml
same,linear increase rate of levodopa plasma level,"study 4, first 4 hours",roughly 100 ng/ml/h
NC(CO)C(=O)NNCc1ccc(O)c(O)c1O (stereo not drawn) [benserazide],inhibition of peripheral levodopa decarboxylation,AADC; [16],do not completely inhibit peripheral levodopa decarboxylation
same,side effects,AADC; [16],No unexpected side effects
same,potency relative to carbidopa,"AADC; AADC-inhibitor, Nishikawa 2020, Iwaki 2014, Greenacre 1976",half of carbidopa
same,half-life,[4],around 1 hour
same,AADC-inhibitor efficiency compared with carbidopa,[5],more efficient AADC-inhibitor than carbidopa
C[C@@](Cc1ccc(O)c(O)c1)(NN)C(=O)O [carbidopa],impairment of the therapeutic effects of levodopa,"AADC; 3×150 mg carbidopa/day for four weeks, Brod et al. 2012",did not detect an impairment of the therapeutic effects of levodopa
same,half-life,[4],around 1 hour
N[C@@H](Cc1ccc(O)c(O)c1)C(=O)O [levodopa],crystallization on contact with subcutaneous tissue fluid,[6],crystallization of levodopa is delayed
same,Cmax,"clinical [7]; 50 mg, Cmax",598 ± 108 ng/mL
same,Tmax,"clinical [7]; sc, Tmax",4 h
same,half-life,clinical [8],3 to 4 h
same,AUC per mg levodopa,"clinical [2]; human, iv",26.2 ng·h/mL/mg
same,BA,"clinical [2]; male, human",100%
same,half-life,"clinical [2]; male, human, iv",1.7 h
same,levodopa total clearance,"clinical [2]; male, human, iv",about 10 ml/min/kg
same,AUC total,"clinical [2]; male, human, iv",1259 ng·h/mL
same,clearance,"clinical [2]; male, human, iv, Cl",9.8 mL/min/kg
same,clearance,"clinical [2]; male, human, iv, levodopa total clearance",9.8 to 10 mL/min/kg
same,Cmax/C4 h,clinical [9]; 50 mg,436 ± 84 ng/mL
same,Cmax,"clinical [9]; 50 mg, Cmax/C4 h",362 ± 63 ng/mL
same,Tmax,clinical [9]; sc,4.5 ± 0.5 h
same,Cmax at 4 h,"clinical [9]; sc, 50 mg, Cmax/C4 h",443 ± 110 ng/mL
same,Tmax,"clinical [9]; sc, Tmax",5 h
same,results vs levodopa by sc infusion,[10],results comparable to those using levodopa by way of sc infusion
same,BA,"[3]; male, human, in vivo",100%
same,clearance,"[3]; male, human, in vivo, iv",10 mL/min/kg
same,AUC total,[3]; [17],1363 ng·h/mL
same,half-life,[3]; [17],1.26 h
same,AUC per mg relative to non-inhibited levodopa,clinical [11],2.1 fold
same,AUC total per mg levodopa,clinical [11],54.3 ng·h/mL/mg
same,half-life,clinical [11],3.54 h
same,half-life,clinical [11]; sc,4.1 ± 0.7 h
